Measured values: article PMC11836371, “Virtual fragment screening for DNA repair inhibitors in vast chemical space” (Nature Communications, 2025)
Several values for one entry are separate records, joined by “and”; a condition that tells them apart may be missing. Equal entries are not always repeated.

Experiments:
MTH1 = MTH1 (Homo sapiens, UniProt P36639); assay: biochemical
Experimental: Inhibition of the following enzymes was assessed in the selectivity assays: apurinic/apyrimidinic endonuclease (APE1), endonuclease 8-like 1 (NEIL1), oxidized purine nucleoside triphosphate hydrolase (MTH1) and single-strand selective monofunctional uracil DNA glycosylase (SMUG1). BER enzymes were assayed with a similar strategy as OGG1, using identical DNA sequences surrounding the substrate lesion and the same reaction buffer containing 2 nM APE1. To assess SMUG1 inhibition, a 375 nM substrate containing uracil opposite guanine and 0.3 U SMUG1 enzyme (M0336 from New England Biolabs) was used. To assess NEIL1 inhibition, a 20 nM substrate containing thymidine glycol opposite adenine and 10 nM NEIL1 was used. To assess APE1 inhibition, an UNG2 substrate was pre-treated with E. coli Uracil-DNA glycosylase (New England Biolabs M0280) to generate an AP-site opposite adenine, which was used at 10 nM concentration in the presence of 0.1 nM APE1. All BER inhibition assays were in the linear range and less than 40% of the total substrate had been consumed at readout. The experiments were performed in three independent replicates and the percentage inhibition was calculated relative to the signal of a DMSO-treated control. To assess MTH1 inhibition, MTH1-catalyzed dGTP hydrolysis was coupled to inorganic pyrophosphatase (PPase), thereby releasing inorganic phosphate. The produced free phosphate was then detected using the malachite green assay[76]. […] Substrate concentration at the Km value for the respective substrate was chosen if possible. Inhibition using 100 μM compound was tested in reaction buffer (100 mM Tris-Acetate pH 8.0, 10 mM magnesium acetate, 40 mM NaCl, 1 mM DTT, and 0.005% Tween-20). Samples were incubated with shaking at 22 °C for 15 minutes. The reaction was then stopped by the addition of the malachite green reagent[76]. Absorbance was read at 630 nm using a Hidex Sense plate reader after a period of incubation with the methylene green reagent of 15 minutes. The experiment was performed in three independent replicates and percentage inhibition was calculated relative to the signal of a DMSO-treated control.

SMUG1 = target: T1, SMUG1 (Homo sapiens, UniProt Q53HV7); assay: BER enzyme selectivity assay, SMUG1; format: biochemical; conditions: Figure 3B, three independent experiments
T1 construct: purchased New England Biolabs M0336
T1 sequence (Q53HV7 1-270): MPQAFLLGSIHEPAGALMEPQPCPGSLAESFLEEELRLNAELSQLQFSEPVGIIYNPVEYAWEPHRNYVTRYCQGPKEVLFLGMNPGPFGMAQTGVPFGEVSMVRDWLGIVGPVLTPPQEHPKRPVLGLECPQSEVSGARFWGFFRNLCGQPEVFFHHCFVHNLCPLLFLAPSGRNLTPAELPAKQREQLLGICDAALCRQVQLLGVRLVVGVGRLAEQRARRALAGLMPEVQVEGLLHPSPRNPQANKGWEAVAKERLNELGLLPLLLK
Experimental: (§1) Inhibition of the following enzymes was assessed in the selectivity assays: apurinic/apyrimidinic endonuclease (APE1), endonuclease 8-like 1 (NEIL1), oxidized purine nucleoside triphosphate hydrolase (MTH1) and single-strand selective monofunctional uracil DNA glycosylase (SMUG1). BER enzymes were assayed with a similar strategy as OGG1, using identical DNA sequences surrounding the substrate lesion and the same reaction buffer containing 2 nM APE1. To assess SMUG1 inhibition, a 375 nM substrate containing uracil opposite guanine and 0.3 U SMUG1 enzyme (M0336 from New England Biolabs) was used. To assess NEIL1 inhibition, a 20 nM substrate containing thymidine glycol opposite adenine and 10 nM NEIL1 was used. […] All BER inhibition assays were in the linear range and less than 40% of the total substrate had been consumed at readout. The experiments were performed in three independent replicates and the percentage inhibition was calculated relative to the signal of a DMSO-treated control. […] The produced free phosphate was then detected using the malachite green assay[76]. […] Absorbance was read at 630 nm using a Hidex Sense plate reader after a period of incubation with the methylene green reagent of 15 minutes. The experiment was performed in three independent replicates and percentage inhibition was calculated relative to the signal of a DMSO-treated control.

APE1 = APE1 (Homo sapiens, UniProt P27695); assay: biochemical
Chain of APE1 (P27695 whole entry, species assumed): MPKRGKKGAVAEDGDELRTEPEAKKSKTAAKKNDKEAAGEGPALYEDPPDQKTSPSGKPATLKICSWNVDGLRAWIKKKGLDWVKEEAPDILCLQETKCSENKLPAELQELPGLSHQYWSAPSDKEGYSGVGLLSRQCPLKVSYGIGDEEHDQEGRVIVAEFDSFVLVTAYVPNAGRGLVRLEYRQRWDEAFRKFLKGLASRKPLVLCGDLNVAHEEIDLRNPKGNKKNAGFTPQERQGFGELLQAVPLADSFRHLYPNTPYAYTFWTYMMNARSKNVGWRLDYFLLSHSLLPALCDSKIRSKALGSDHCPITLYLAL
Experimental: as §1

For `Cc1nc(-c2ccc(CC(=O)Nc3noc4c3CCCC4)cc2)c(C)[nH]1` [compound 17], the IC50 (MTH1) was 24.3 µM and 20.6 µM and 24.9 µM, the IC50 (SMUG1) was > 99 µM and the IC50 (APE1) was > 99 µM.
